Experimental data: US20190388441A1, “NOVEL PRODRUGS OF MIZORIBINE” (KATHOLIEKE UNIVERSITEIT LEUVEN, priority 2017, published 2019)
Like-named read-outs stand apart in the source and are kept apart here.

Tests used:
IL-2 production = test: suppression of IL-2 production in anti-CD3 antibody stimulated mice in vivo; set-up: species or system Balb/c mice; conditions: Mus musculus; for inhibition at 65 mg/kg: 65 mpk PO; for inhibition at 40 mg/kg: 40 mpk PO; for inhibition at 55 mg/kg: 55 mpk PO; for inhibition at 50 mg/kg: 50 mpk PO; for inhibition at 25 mg/kg: 25 mpk PO
Description: Mizoribine prodrug-induced suppression of IL-2 production in anti-CD3 antibody stimulated mice in vivo.
Inbreed Balb/c mice, male, 8-10 week old, were pre-treated with Mycophenolate mofetil (MMF), Mizoribine and Mizoribine prodrugs at the different time intervals before anti-mouse CD3 antibody injection IP (1 μg per mouse). The doses of the prodrugs of examples 19, 40 and 48 were equal to Mizoribine on the bases of molecular weight. Four hours after anti-CD3 antibody stimulation, a volume of 100 μl peripheral blood was taken by eye puncture and serum IL-2 was quantified by FACS-beads technology. Briefly, an aliquot of 10 μl of serum was incubated with anti-mouse IL-2 antibody coated microbeads at 4° C. for 30 min. After washing twice with cold PBS, the beads were incubated with biotin-conjugated anti-mouse IL-2 antibody at 4° C. for 30 min. After washing twice with cold PBS, The beads were incubated with PE-conjugated avidin at 4° C. for 30 min. After washing twice with cold PBS, the samples were analyzed by flow cytometry. Results were expressed as mean of 2 mice in each group.

DBA-1 mice with CIA = test: chicken collagen type II induced rheumatoid arthritis (CIA) in DBA-1 mice; format: in vivo; conditions: monotherapy at given doses, 30 day-treatment
Excerpt: Results of example 67 showing disease score in DBA-1 mice with CIA after a 30 day-treatment with the Mizoribine prodrug of example 19 alone and in combination with MMF or Mizoribine.
Example 67: Synergy of the Prodrug of Example 19 with MMF or Mizoribine in Treatment of DBA-1 Mice with Chicken Collagen Type II Induced Rheumatoid Arthritis (CIA)

Balb/c mice = test: subacute toxicity assay; format: in vivo; conditions: Day 0-14, n = 6
Description: Reduction of Toxicity by Combination of Ex19 and MZR Subacute Toxicity Assay
Balb/c mice were treated with MZR at 100 mpk PO or Ex19 at equal molecule dose to MZR from day 0-14.

[1] = tested on: heart grafts from Balb/c donors in C57BL/6 recipient mice; test: heart allograft survival in mice (heterotopic heart transplantation); format: in vivo
Description: Synergy of Mizoribine Prodrugs with FK506 to Prolong Heart Allograft Survival in Mice
Heterotopic hear transplantation was performed by placing heart grafts from Balb/c donors to the neck of C57BL/6 recipient mice using micro-suture technology, in which the aorta and pulmonary artery of the graft were connected to carotid artery and jugular vein, respectively. The function of grafts was monitored by daily inspection and palpation. Rejection was determined by cessation of graft beating and confirmed by histology.

IMPDH (E. coli) = IMPDH (E. coli) (Escherichia coli, UniProt P0ADG7); conditions: lower end of the range; cited from earlier work
hlMPDH1 = hlMPDH1 (Homo sapiens, UniProt P20839); conditions: upper end of the range; cited from earlier work
[2] = given 1 hour before anti-CD3, mean of 2 mice, read-out: % inhibition of IL-2, 1 hour post administration
[3] = given 4 hours before anti-CD3, mean of 2 mice, read-out: % inhibition of IL-2, 4 hour post administration
[4] = given 8 hours before anti-CD3, mean of 2 mice, read-out: % inhibition of IL-2, 8 hour post administration
[5] = 1 to 8 hours post administration, read-out: inhibition of IL-2, range up to 8 hours post administration

hlMPDH1, sequence (P20839 whole entry): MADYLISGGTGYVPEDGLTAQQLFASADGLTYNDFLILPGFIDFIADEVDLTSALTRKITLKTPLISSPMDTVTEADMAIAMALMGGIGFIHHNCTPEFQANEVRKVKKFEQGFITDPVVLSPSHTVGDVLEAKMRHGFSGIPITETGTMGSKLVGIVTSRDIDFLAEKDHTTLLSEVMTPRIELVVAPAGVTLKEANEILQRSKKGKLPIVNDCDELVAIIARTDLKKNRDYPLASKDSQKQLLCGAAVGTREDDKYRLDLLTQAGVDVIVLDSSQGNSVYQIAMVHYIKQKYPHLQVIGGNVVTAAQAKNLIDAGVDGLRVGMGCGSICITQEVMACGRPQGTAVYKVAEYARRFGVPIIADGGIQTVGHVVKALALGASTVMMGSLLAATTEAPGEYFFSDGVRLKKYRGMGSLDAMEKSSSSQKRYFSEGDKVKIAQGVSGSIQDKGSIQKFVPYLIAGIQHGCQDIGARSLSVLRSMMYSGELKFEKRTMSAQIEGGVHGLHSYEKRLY
IMPDH (E. coli), sequence (P0ADG7 whole entry): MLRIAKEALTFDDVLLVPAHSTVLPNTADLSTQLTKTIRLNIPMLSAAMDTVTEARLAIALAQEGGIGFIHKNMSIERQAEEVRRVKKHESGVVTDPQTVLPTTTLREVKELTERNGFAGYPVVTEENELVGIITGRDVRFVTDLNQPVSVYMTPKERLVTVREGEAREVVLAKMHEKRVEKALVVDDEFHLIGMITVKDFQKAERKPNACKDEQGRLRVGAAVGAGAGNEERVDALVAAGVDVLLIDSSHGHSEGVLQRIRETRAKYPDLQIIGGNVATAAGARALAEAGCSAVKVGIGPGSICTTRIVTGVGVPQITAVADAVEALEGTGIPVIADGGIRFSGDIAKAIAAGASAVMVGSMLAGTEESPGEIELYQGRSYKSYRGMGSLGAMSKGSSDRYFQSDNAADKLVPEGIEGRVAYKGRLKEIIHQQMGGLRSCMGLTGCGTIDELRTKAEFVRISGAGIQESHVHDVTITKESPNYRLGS

CC(C)CCOC(=O)C[C@H](NP(=O)(OC[C@H]1O[C@@H](n2cnc(C(N)=O)c2O)[C@H](O)C1O)Oc1ccccc1)C(=O)OCCC(C)C (stereo partly drawn) [Ex 19, Mizoribine-5′-[phenyl-bis(isoamyl-L-aspartyl)]phosphate]
inhibition at 65 mg/kg (IL-2 production; [2]): 14.7% | inhibition at 65 mg/kg (IL-2 production; [3]): 18.3% | inhibition at 65 mg/kg (IL-2 production; [4]): 17.5% | inhibition at 65 mg/kg (IL-2 production; [5]): 14 to 18% | suppression of disease score (DBA-1 mice with CIA): didn't show notable suppression of disease score | n° sick animals (Balb/c mice; Ex19 260 mg/kg PO (equal molecule dose to MZR)): 3 | % sickness (Balb/c mice; Ex19 260 mg/kg PO): 50%

CC(C)(C)C(=O)NC(=O)c1ncn([C@@H]2O[C@H](COC(=O)C(C)(C)C)C(O)[C@H]2O)c1O (stereo partly drawn) [Ex 40, Mizoribine-5′-N-dipivalate]
inhibition at 40 mg/kg (IL-2 production; [2]): 19.4% | inhibition at 40 mg/kg (IL-2 production; [3]): 64.4% | inhibition at 40 mg/kg (IL-2 production; [4]): 61.3% | MST (median survival time) ± SD ([1]; 83 mpk PO, d 0 to d 14 post transplantation): 11 ± 0.6 days | MST (median survival time) ± SD ([1]; 83 mpk PO, d 0 to d 14 post transplantation, listed as Example 40): 11 ± 0.6 days | MST (median survival time) ± SD ([1]; 83 mpk PO, d 0 to d 14 post transplantation, listed as example 40): 11 ± 0.6 days

NC(=O)c1ncn(C2OC(COC(=O)[C@@H](N)CC(=O)OCc3ccccc3)C(O)C2O)c1O (stereo partly drawn) [Ex 48, Mizoribine-5′-(4-benzyl ester-L-aspartyl) ester]
inhibition at 55 mg/kg (IL-2 production; [2]): 77% | inhibition at 55 mg/kg (IL-2 production; [3]): 32.7% | inhibition at 55 mg/kg (IL-2 production; [4]): 27.7% | inhibition at 55 mg/kg (IL-2 production; [5]): 27.7 to 77% | MST (median survival time) ± SD ([1]; 112 mpk PO, d 0 to d 14 post transplantation): 11 ± 1.0 days | MST (median survival time) ± SD ([1]; 112 mpk PO, d 0 to d 14 post transplantation, listed as example 48): 11 ± 1.0 days

C=CC[C@@H]1/C=C(\C)C[C@H](C)C[C@H](OC)[C@H]2O[C@@](O)(C(=O)C(=O)N3CCCC[C@H]3C(=O)O[C@H](/C(C)=C/[C@@H]3CC[C@@H](O)[C@H](OC)C3)[C@H](C)[C@@H](O)CC1=O)[C@H](C)C[C@@H]2OC [FK506, tacrolimus]
MST (median survival time) ± SD ([1]; FK506 4 mpk IM, d 0 to d 14 post transplantation, 4 mg/kg): 8 ± 1.3 days

COc1c(C)c2c(c(O)c1C/C=C(\C)CCC(=O)OCCN1CCOCC1)C(=O)OC2 [MMF, Mycophenolate mofetil, reference compound]
inhibition at 50 mg/kg (IL-2 production; given 1 hour before anti-CD3, serum IL-2 4 h after stimulation, mean of 2 mice, read-out: % inhibition of IL-2, 1 hour post administration): 81.7% | inhibition at 50 mg/kg (IL-2 production; [3]): 52.3% | inhibition at 50 mg/kg (IL-2 production; [4]): 3.4% | MST (median survival time) ± SD ([1]; MMF 100 mpk PO, d 0 to d 14): 11 ± 1.2 days | suppression of disease score (DBA-1 mice with CIA): didn't show notable suppression of disease score

NC(=O)c1ncn([C@@H]2O[C@H](CO)[C@@H](O)[C@H]2O)c1O [Mizoribine]
inhibition at 25 mg/kg (IL-2 production; [2]): 55.6% | inhibition at 25 mg/kg (IL-2 production; [3]): -8.6% | inhibition at 25 mg/kg (IL-2 production; [4]): -7.3% | MST (median survival time) ± SD ([1]; MZR 50 mpk PO, d 0 to d 14): 8 ± 1.2 days | MST (median survival time) ± SD ([1]; MZR 50 mpk PO, d 0 to d 14, listed as MZR): 8 ± 1.2 days | suppression of disease score (DBA-1 mice with CIA): didn't show notable suppression of disease score

NC(=O)c1ncn([C@@H]2O[C@H](COP(=O)(O)O)[C@@H](O)[C@H]2O)c1O [mizoribine-5′-monophosphate]
Ki (IMPDH (E. coli)): 0.5 nM | Ki (hlMPDH1): 8 nM
